The nature of the data set: Flash point of solvents, closed cup method. Type of data set: physicochemical. An excerpt: In one embodiment, the formulation contains a mixture of organic solvent and isopropyl alcohol.

With `C=C(C)[C@H]1CC=C(C)CC1` [dipentene], the flash point turned out to be 46 °C. As for `CC(C)O` [isopropyl alcohol], the flash point worked out at 11.7 °C.

`OCc1ccccc1` [benzyl alcohol]: the flash point was determined as 100.6 °C. As to `CC(O)CO` (centres unmarked) [propylene glycol], the flash point amounted to 99 °C.

For the compound `CCO` [ethyl alcohol], the flash point came out at 14 °C.

The record behind these values is patent publication US8158139B2 (priority 2004, dated 2012).
